Columns and labels:
CDK2/cyclin A2 = target: T1, CDK2/cyclin A2 (Homo sapiens, UniProt P24941); assay: Human CDK2/cyclin A2 inhibitory activity (QS S Assist CDK2/Cyclin A2_FP Kit, IMAP fluorescence polarization); type: biochemical; conditions: 50% inhibitory concentration against CDK2/cyclin A2, given as class symbol
T1 construct: purchased Carna Biosciences, Inc. QS S Assist CDK2/Cyclin A2_FP Kit
Summary of the method: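 Kinase activity read as fluorescence polarization (485/535 nm) after phosphorylated fluorescent substrate binds IMAP reagent (30 min, RT, dark). Enzyme (2.5 ng/well) reacted 60 min at RT with ATP/substrate/metal in HEPES pH 7.4 buffer with Tween 20 and DTT; no-enzyme wells define 0% activity; IC50 by curve fit.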

CDK4/cyclin D3 = target: T2, CDK4/cyclin D3 (Homo sapiens, UniProt P11802); assay: Human CDK4/cyclin D3 inhibitory activity (QS S Assist CDK4/Cyclin D3_FP Kit, IMAP fluorescence polarization); type: biochemical; conditions: 50% inhibitory concentration against CDK4/cyclin D3, given as class symbol
T2 construct: purchased Carna Biosciences, Inc. QS S Assist CDK4/Cyclin D3_FP Kit
T2 sequence (P11802 whole entry): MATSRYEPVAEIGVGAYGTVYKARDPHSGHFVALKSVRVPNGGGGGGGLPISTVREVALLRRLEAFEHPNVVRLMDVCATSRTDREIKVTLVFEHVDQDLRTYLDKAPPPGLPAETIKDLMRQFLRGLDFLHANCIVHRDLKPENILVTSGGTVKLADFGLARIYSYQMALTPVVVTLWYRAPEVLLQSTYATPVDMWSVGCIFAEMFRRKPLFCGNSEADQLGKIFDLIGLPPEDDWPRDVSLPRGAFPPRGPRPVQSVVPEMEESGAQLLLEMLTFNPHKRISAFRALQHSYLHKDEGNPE
T2 sequence (P30281 whole entry partner): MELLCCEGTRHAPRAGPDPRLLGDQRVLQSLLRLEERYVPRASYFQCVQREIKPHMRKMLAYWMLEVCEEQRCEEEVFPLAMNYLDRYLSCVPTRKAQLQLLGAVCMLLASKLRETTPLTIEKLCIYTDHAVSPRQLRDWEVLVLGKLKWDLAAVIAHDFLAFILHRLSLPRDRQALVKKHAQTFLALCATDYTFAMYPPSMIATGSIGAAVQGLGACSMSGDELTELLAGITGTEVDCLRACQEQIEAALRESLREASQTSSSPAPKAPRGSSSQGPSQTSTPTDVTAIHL
Summary of the method: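 IMAP fluorescence polarization kit: CDK4/cyclin D3 at 12.5-25 ng/well with kit ATP/substrate/metal mix in 20 mM HEPES pH 7.4, 0.01% Tween20, 2 mM DTT, 45 min at room temperature. FP read at 485/535 nm after 30 min binding; IC50 from dose-response fit of percent inhibition versus enzyme and no-enzyme controls.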

Compound | IC50 (CDK2/cyclin A2) [nM] | IC50 (CDK4/cyclin D3) [nM]
CC(C)Nc1nc([C@@H](C)O)cc2cnc(Nc3ccc(N4CCOCC4=O)cn3)nc12 [Compound 804] | ≥ 100 | < 10
C[C@@H](O)c1cc2cnc(Nc3ccc(O[C@@H]4CCNC4)cn3)nc2c(N[C@H]2CCCOC2)n1 [Compound 805] | ≥ 100 | < 10
CC(C)Nc1nc(C2CCCOC2)cc2cnc(Nc3ccc(N4CCNCC4=O)cn3)nc12 (stereo not shown) [Compound 807] | ≥ 100 | 10 to 100
CC(C)Nc1nc([C@@H](C)O)cc2cnc(Nc3ccc(-c4cnn(C5CCNCC5)c4)cn3)nc12 [Compound 808] | ≥ 100 | < 10
CC(C)Nc1nc([C@@H](C)O)cc2cnc(Nc3ccc(N4CCN(CCO)CCC4=O)cn3)nc12 [Compound 811] | 10 to 100 | < 10
CCNc1nc([C@@H](C)O)cc2cnc(Nc3ccc(N4CCNCC4=O)cn3)nc12 [Compound 812] | ≥ 100 | 10 to 100
CCCCNc1nc([C@@H](C)O)cc2cnc(Nc3ccc(N4CCNCC4=O)cn3)nc12 [Compound 813] | ≥ 100 | < 10
Cc1nc(Nc2ncc3c(Cl)c([C@@H](C)O)nc(NC(C)C)c3n2)ccc1N1CCNCC1=O [Compound 815] | ≥ 100 | < 10
CCNc1nc([C@@H](C)OC)cc2cnc(Nc3ccc(CN4CCNCC4)cn3)nc12 [Compound 816] | ≥ 100 | < 10
CCNc1nc([C@@H](C)OC)cc2cnc(Nc3ccc(N4CCNCC4)nn3)nc12 [Compound 817] | ≥ 100 | < 10
CCNc1nc(C(F)F)cc2cnc(Nc3ccc(N4CCNCC4=O)cn3)nc12 [Compound 820] | 10 to 100 | < 10
CCCNc1nc(C(F)F)cc2cnc(Nc3ccc(N4CCNCC4=O)cn3)nc12 [Compound 821] | 10 to 100 | < 10
O=C1CNCCN1c1ccc(Nc2ncc3cc(C(F)F)nc(NCC4CCOCC4)c3n2)nc1 [Compound 823] | ≥ 100 | 10 to 100
Cc1nc(Nc2ncc3cc(C4CCOC4)nc(NC(C)C)c3n2)ccc1N1CCNCC1=O (stereo not shown) [Compound 824] | ≥ 100 | < 10
CC(C)Nc1nc([C@@H](C)O)cc2cnc(Nc3ccc(N4CC5CCCN5CC4=O)cn3)nc12 (stereo partly shown) [Compound 825] | ≥ 100 | < 10
CC(C)CNc1nc([C@@H](C)O)cc2cnc(Nc3ccc(N4CCNCC4=O)cn3)nc12 [Compound 826] | ≥ 100 | < 10
CC(C)CNc1nc([C@@H](C)O)cc2cnc(Nc3ccc(N4CCNCC4)nn3)nc12 [Compound 827] | ≥ 100 | < 10
CC(C)Nc1nc([C@@H](C)O)cc2cnc(Nc3ccc(N4CCC(CCC(=O)O)CC4)nn3)nc12 [Compound 828] | ≥ 100 | 10 to 100
CC(C)Nc1nc([C@@H](C)O)cc2cnc(Nc3ccc(N4CCN(CC(=O)O)CC4=O)cn3)nc12 [Compound 833] | ≥ 100 | < 10
C[C@@H](O)c1cc2cnc(Nc3ccc(C4CCN(C(C)(C)C(=O)O)CC4)cn3)nc2c(NC(C)(C)C)n1 [Compound 834] | ≥ 100 | < 10
CC(C)Nc1nc([C@@H](C)O)cc2cnc(Nc3ccc(N4CCCC(C(=O)O)C4)cn3)nc12 (stereo partly shown) [Compound 835] | ≥ 100 | 10 to 100

Compound | IC50 (CDK2/cyclin A2) [nM] | IC50 (CDK4/cyclin D3) [nM]
CC(C)Nc1nc([C@@H](C)O)cc2cnc(Nc3ccc(N4CCC(C(=O)O)CC4)cn3)nc12 [Compound 836] | ≥ 100 | 10 to 100
C[C@@H](O)c1cc2cnc(Nc3ccc(CN4CCC(C(=O)O)CC4)cn3)nc2c(NC(C)(C)C)n1 [Compound 837] | 10 to 100 | < 10
CO[C@H](C)c1cc2cnc(Nc3ccc(NC(=O)C4CCCCN4)cn3)nc2c(NC(C)C)n1 (stereo partly shown) [Compound 838] | ≥ 100 | < 10
C[C@H]1CC[C@H](Nc2nc(C(F)F)cc3cnc(Nc4ccc(CN5CCC(C(=O)O)CC5)cn4)nc23)CC1 [Compound 839] | ≥ 100 | < 10
CC(C)Nc1nc([C@@H](C)O)c(Cl)c2cnc(Nc3ccc(N4CCN(CCO)CCC4=O)cn3)nc12 [Compound 841] | ≥ 100 | < 10
CO[C@H](C)c1nc(NC(C)C)c2nc(Nc3ccc(C(=O)N4CCNCC4)cn3)ncc2c1Cl [Compound 842] | ≥ 100 | 10 to 100
CCCCNc1nc([C@@H](C)O)cc2cnc(Nc3ccc(CN4CCN(CCO)CC4)cn3)nc12 [Compound 845] | ≥ 100 | < 10
CC(C)CNc1nc([C@@H](C)O)cc2cnc(Nc3ccc(CN4CCN(CCO)CC4)cn3)nc12 [Compound 846] | ≥ 100 | < 10
O=C1CNCCN1c1ccc(Nc2ncc3cc(C(F)F)nc(N[C@H]4CCCOC4)c3n2)nc1 [Compound 849] | 10 to 100 | < 10
CC(C)Nc1nc(C(F)F)c(Cl)c2cnc(Nc3ccc(N4CCNCC4=O)cn3)nc12 [Compound 850] | 10 to 100 | 10 to 100
CCCCNc1nc([C@@H](C)OC)cc2cnc(Nc3ccc(CN4CCN(CCO)CC4)cn3)nc12 [Compound 853] | ≥ 100 | < 10
CCCCNc1nc([C@@H](C)OC)cc2cnc(Nc3ccc(N4CCNCC4)nn3)nc12 [Compound 855] | ≥ 100 | < 10
O=C1CNCCN1Cc1ccc(Nc2ncc3cc(C(F)F)nc(N[C@H]4CCCOC4)c3n2)nc1 [Compound 856] | ≥ 100 | < 10
CCCNc1nc([C@@H](C)OC)cc2cnc(Nc3ccc(CN4C[C@H]5C[C@@H]4CN5)cn3)nc12 [Compound 857] | ≥ 100 | < 10
CCCNc1nc([C@@H](C)OC)cc2cnc(Nc3ccc(N4C[C@H]5C[C@@H]4CN5)nn3)nc12 [Compound 858] | ≥ 100 | < 10
CO[C@H](C)c1cc2cnc(Nc3ccc(CN4CCN(CCO)CC4)cn3)nc2c(N[C@H]2CCCOC2)n1 [Compound 860] | ≥ 100 | < 10
CO[C@H](C)c1cc2cnc(Nc3ccc(N4CCNCC4)nn3)nc2c(NCC(C)C)n1 [Compound 862] | ≥ 100 | < 10
CC(C)Nc1nc([C@@H](C)O)cc2cnc(Nc3ccc(OCCNS(C)(=O)=O)cn3)nc12 [Compound 867] | ≥ 100 | < 10
C[C@@H](O)c1cc2cnc(Nc3ccc(N4CCNCC4=O)cn3)nc2c(N(C)[C@H]2CCCOC2)n1 [Compound 872] | ≥ 100 | 10 to 100
CC(C)Nc1nc(C2CCOC2)cc2cnc(Nc3ccc(N4CCNCC4)nn3)nc12 (stereo not shown) [Compound 877] | ≥ 100 | < 10

The next lines start with the values.

IC50 (CDK2/cyclin A2) [nM] | IC50 (CDK4/cyclin D3) [nM] | Compound
≥ 100 | < 10 | O=C(O)C1CCN(Cc2ccc(Nc3ncc4cc(C(F)F)nc(N[C@H]5CCCOC5)c4n3)nc2)CC1 [Compound 806]
≥ 100 | < 10 | CCCNc1nc([C@@H](C)O)cc2cnc(Nc3ccc(N4CCNCC4=O)cn3)nc12 [Compound 814]
10 to 100 | < 10 | O=C1CNCCN1c1ccc(Nc2ncc3cc(C(F)F)nc(NC4CCOCC4)c3n2)nc1 [Compound 822]
≥ 100 | < 10 | CC(C)Nc1nc([C@@H](C)O)cc2cnc(Nc3ccc(C4CCN(CC(=O)O)CC4)cn3)nc12 [Compound 829]
≥ 100 | < 10 | C[C@@H](O)c1cc2cnc(Nc3ccc(C4CCN(CC(=O)O)CC4)cn3)nc2c(NC(C)(C)C)n1 [Compound 830]
≥ 100 | ≥ 100 | O=C1CNCCN1c1ccc(Nc2ncc3c(Cl)c(C(F)F)nc(NCC4CCOCC4)c3n2)nc1 [Compound 840]
≥ 100 | < 10 | C[C@@H](O)c1cc2cnc(Nc3ccc(CN4CCN(CCO)CC4)cn3)nc2c(NCC2CCOCC2)n1 [Compound 847]
≥ 100 | 10 to 100 | Cc1nc(Nc2ncc3c(Cl)c(C(F)F)nc(NC(C)C)c3n2)ccc1N1CCNCC1=O [Compound 851]
≥ 100 | < 10 | CCCNc1nc([C@@H](C)OC)cc2cnc(Nc3ccc(CN4CCN(CCO)CC4)cn3)nc12 [Compound 852]
≥ 100 | < 10 | CCCCNc1nc([C@@H](C)OC)cc2cnc(Nc3ccc(CN4CCNCC4)cn3)nc12 [Compound 854]
≥ 100 | < 10 | CO[C@H](C)c1cc2cnc(Nc3ccc(N4C[C@H]5C[C@@H]4CN5)nn3)nc2c(NC(C)C)n1 [Compound 859]
≥ 100 | < 10 | CO[C@H](C)c1cc2cnc(Nc3ccc(CN4CCNCC4)cn3)nc2c(NCC(C)C)n1 [Compound 861]
≥ 100 | < 10 | CC(C)Nc1nc([C@@H](C)O)cc2cnc(Nc3ccc(N4CCNCC4C(F)(F)F)nn3)nc12 (stereo partly shown) [Compound 863]
≥ 100 | < 10 | CC(C)Nc1nc(C(C)O)cc2cnc(Nc3ccc(OC4CNCCC4F)cn3)nc12 (stereo not shown) [Compound 864]
≥ 100 | < 10 | CNCCOc1ccc(Nc2ncc3cc([C@@H](C)O)nc(N(C)[C@H]4CCCOC4)c3n2)nc1 [Compound 868]
≥ 100 | 10 to 100 | CC(C)N(C)c1nc([C@@H](C)O)cc2cnc(Nc3ccc(N4CCNCC4=O)cn3)nc12 [Compound 871]
≥ 100 | < 10 | CO[C@H](C)c1cc2cnc(Nc3ccc(OC4CCNCC4)cn3)nc2c(NC2CCOCC2)n1 [Compound 873]
≥ 100 | < 10 | CO[C@H](C)c1cc2cnc(Nc3ccc(OC4CCNCC4)cn3)nc2c(N[C@H]2CCCOC2)n1 [Compound 874]
